Results taken from patent US20250073220A1, “ORAL SOLUTION COMPRISING LENALIDOMIDE” (A FINE HOUSE S.A., priority 2021, published 2025).
Converted amounts (≈) assume the structure as drawn.

How the values were obtained:
[1] = Precipitation after preparation of liquid lenalidomide compositions; format: physicochemical; conditions: a few minutes after lenalidomide was dissolved in an aqueous buffer at pH between 1.0 and 3.5
Experimental: A composition was prepared according to example 23 of WO 1998/03502. The solution contained 5.0 g lenalidomide, 22.5 g sodium chloride, 300.0 g phosphate buffer with pH 7.4 and demineralized water. The pH of the final composition was 7.4.
Similar results (i.e. precipitation) were obtained a few minutes after lenalidomide was dissolved in an aqueous buffer at pH between 1.0 and 3.5.
Thus, the composition of Trial 0 was not subjected to the stability study.
The composition of trial 4 was not subjected to the stability study.

[2] = 0.1 N HCl aqueous solution (pH around 1); cited from earlier work

precipitation after dissolution [1]: precipitation
SMILES: Nc1cccc2c1CN(C1CCC(=O)NC1=O)C2=O (racemic) [Lenalidomide, 1-oxo-(2,6-dioxopiperidin-3-yl)-4-aminoisoindoline]
solubility [2]: 18.0 mg/mL (≈ 69.4 mM)
